For orientation: inhibition means the change of the read-out against control, counted positive when it falls. Low readings indicate little suppression, high ones strong suppression.

Among the data in article PMC6934184, “Selective DNA-PKcs inhibition extends the therapeutic index of localized radiotherapy and chemotherapy” (The Journal of Clinical Investigation, 2019) are inhibition values, retold here.

This test deals with T1, STK22B (TSSK2) (Homo sapiens, UniProt Q96PF2).
T1 construct: purchased Thermo Fisher Scientific (Life Technologies) SelectScreen
The test is described as follows: SelectScreen Z'LYTE. In kind it is biochemical. The gist of the method: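 Percent values come from Thermo SelectScreen profiling of NU5455, combining activity and binding assays. CSF1R was run in Z'LYTE format at Km app ATP, and CAMK1 in Adapta format with ATP listed at 10.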

T1 sequence (Q96PF2 whole entry): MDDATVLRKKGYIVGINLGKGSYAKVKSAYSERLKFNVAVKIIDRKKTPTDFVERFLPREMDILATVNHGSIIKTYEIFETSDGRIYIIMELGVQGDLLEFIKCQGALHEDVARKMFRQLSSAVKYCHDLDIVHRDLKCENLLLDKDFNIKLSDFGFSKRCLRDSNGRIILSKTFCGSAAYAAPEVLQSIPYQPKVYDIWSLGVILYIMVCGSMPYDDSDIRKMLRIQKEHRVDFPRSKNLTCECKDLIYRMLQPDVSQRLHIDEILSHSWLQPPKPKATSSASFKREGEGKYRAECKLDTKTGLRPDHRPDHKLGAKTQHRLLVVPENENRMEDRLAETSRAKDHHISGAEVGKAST

In turn, `CN(C(=O)CN1CCOCC1)c1ccc2sc3c(-c4cccc5c(=O)cc(N6CC7CCC(C6)O7)oc45)cccc3c2c1` [NU5455] came in with an inhibition at 1 µM of 2.8%.
